Assay results published in patent US10981932B2, “Macrocyclic indole derivatives” (Bayer Aktiengesellschaft, priority 2016, dated 2021).
Structures can show the parent of a compound that is named as a salt. Where two headings read alike, the source gives them in different places.

How the values were obtained:
BCL-XL = molecular target: T1, BCL-XL (Homo sapiens, UniProt Q07817); assay: Protein-protein interaction assay BCL-XL/Bad BH3 peptide (BCL-XL assay), TR-FRET; type: binding; settings: His-BCL-XL / Bad BH3-derived peptide
T1 construct: BCL-XL (amino acids 1-212, C-terminal fused to a hexahistidine (6×His) tag); purchased BPS Bioscience (San Diego, Calif., USA); host or cells: E. coli
T1 sequence (Q07817 1-212): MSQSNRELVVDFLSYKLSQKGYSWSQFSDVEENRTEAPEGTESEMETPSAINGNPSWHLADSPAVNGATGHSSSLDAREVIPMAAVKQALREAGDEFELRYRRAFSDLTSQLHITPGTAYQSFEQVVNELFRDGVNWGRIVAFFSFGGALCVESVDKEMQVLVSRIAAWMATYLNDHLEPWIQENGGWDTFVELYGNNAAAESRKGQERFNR
Experimental: Protein-Protein Interaction Assay: BCL-XL/Bad BH3 Peptide (BCL-XL Assay)
The dose-dependent inhibition by the compounds described in this invention of the interaction between […] and the BH3 domain of Bad (both human) was determined using a steady state binding competition assay with time-resolved fluorescence energy transfer (TR-FRET) readout. For that purpose BCL-2 (amino acids 1-211, C-terminal fused to a hexahistidine (6×His) tag (SEQ ID NO: 3) and a synthetic Bad BH3-derived peptide of sequence Biotin-PEG2-PEG2-NLWAAQRYGRELRR-NIe-SDEFVDSFKK-amide (SEQ ID NO: 2) served as protein receptor and tracer ligand respectively. The recombinant BCL-2 protein (expressed in E. coli) was purchased from BPS Bioscience (San Diego, Calif., USA). The Bad BH3-derived peptide can be obtained from e.g. Biosyntan (Berlin, Germany).
In the assay 11 different concentrations of each compound (0.1 nM, 0.33 nM, 1.1 nM, 3.8 nM, 13 nM, 44 nM, 0.15 μM, 0.51 μM, 1.7 μM, 5.9 μM and 20 μM) were typically measured as duplicates in the same microtiter plate. For that, 100-fold concentrated DMSO solutions were prepared by serial dilutions (1:3.4) of a 2 mM stock solution in a clear, 384-well microtiter plate (Greiner Bio-One, Frickenhausen, Germany). From there, 50 nl were transferred in a dark test plate (Greiner Bio-One. Frickenhausen, Germany). The assay was initiated by addition of 2 μl of a 2,5-fold concentrated Hs-BCL-XL solution (usually for a 1 nM end concentration in 5 μl reaction volume) in aqueous assay buffer [50 mM Tris/HCl pH 7, 100 mM sodium chloride (NaCl), 50 mM potassium fluoride (KF), 0.005% Tween-20, 2 mM DTT, 0.1% bovine gamma globulin (BGG)] to the compounds in the assay plate. This was followed by a 10-minute incubation step at 22° C. for pre-equilibration of the putative complex between His-BCL-XL and the compounds.
The mixture was incubated in the dark for one hour at 22° C. and then overnight at 4° C. The formation of BCL-XL/Bad complexes was determined by measuring the resonance energy transfer of the anti-His- Eu-cryptate antibody to the streptavidin-XL665 present in the reaction. For that purpose, the fluorescence emission at 620 nm and 665 nm after excitation at 330-350 nm was measured in a TR-FRET measuring instrument, for instance a Rubystar or a Pherastar (both from BMG Lab Technologies, Offenburg, Germany) or a Viewlux (Perkin-Elmer). The ratio of the emission at 665 nm and at 622 nm was used as indicator of the amount of BCL-XL/Bad complexes present.
The resulting data (ratio) were normalized, taking 0% inhibition as the mean value of control measurements (usually 32 data points) where all reagents were included. In this case 50 nl DMSO were used instead of compounds. A 100% inhibition corresponded to the mean value of control measurements (usually 32 data points) where all reagents except BCL-XL were included. IC50 values were determined by regression analysis based on a 4 parameter equation (minimum, maximum, IC50, Hill; Y=Max+(Min−Max)/(1+(X/IC50)^Hill) using the Screener Software (Genedata).

SUDHL5 = assay: Anti-proliferative effect (CellTiter-Glo, 72 h), SUDHL5; type: cell-based; settings: SUDHL5 cells, antiproliferation, 72 h incubation, median, read-out: Antiproli SUDHL5 [M] (median)
In short: (§1)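 72 h compound treatment, 37 °C humidified; CellTiter-Glo added, 10 min incubation, luminescence read; day 0 plate read in parallel for baseline.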

SUDHL10 [1] = assay: Anti-proliferative effect (CellTiter-Glo, 72 h), SUDHL10; type: cell-based; settings: SUDHL10 cells, antiproliferation, 72 h incubation, median, read-out: Antiproli SUDHL10 [M] (median)
In short: as §1

SUDHL10 [2] = assay: Induction of cytotoxicity (CellTiter-Glo, 5 h), SUDHL10
[3] = Homo sapiens, SU-DHL10, 5 h, read-out: Cytotox SUDHL10 [M] (median), SUDHL10 cells, cytotoxicity induction, CellTiter-Glo, 5 h incubation, median
[4] = read-out: Cytotox SUDHL10 [M] (median), SUDHL10 cells, cytotoxicity induction, CellTiter-Glo, 5 h incubation, median

SMILES	IC50 (BCL-XL)	IC50 (SUDHL5; Homo sapiens, SU-DHL-5, 72 h)	IC50 (SUDHL10 [1]; Homo sapiens, SU-DHL10, 72 h)	IC50 (SUDHL5)	IC50 (SUDHL10 [1])	IC50 (SUDHL10 [2]; [3])	IC50 (SUDHL10 [2]; [4])
Cc1nn(C)c2c1-c1cccc3c(CCCOc4cccc5ccccc45)c(C(=O)O)n(c13)CCCCOCC2 (racemic) [Example 017, (rac)-1,3-dimethyl-7-[3-(1-naphthyloxy)propyl]-10,11,12,13,15,16-hexahydro-1H-pyrazolo[4′,3′:9,10][1,6]oxazacyclododecino[8,7,6-hi]indole-8-carboxylic Acid]	> 20 µM	6.09e-06 M	2.17e-05 M			> 3.3e-05 M	
COCCn1nc2c(c1C)-c1cccc3c(CCCOc4cccc5ccccc45)c(C(=O)O)n(c13)CCCCOC2 (single isomer, unassigned; enantiomer 1) [Example 107, 2-(2-methoxyethyl)-3-methyl-7-[3-(naphthalen-1-yloxy)propyl]-2,10,11,12,13,15-hexahydropyrazolo[4′,3′:9,10][1,6]oxazacycloundecino[8,7,6-hi]indole-8-carboxylic acid-N-ethylethanamine Salt (Enantiomer 1)]	> 20 µM			3.82e-06 M	5.32e-06 M		4.65e-06 M
CCc1c2c(nn1C)CN(C)CCCn1c(C(=O)O)c(CCCOc3cccc4ccccc34)c3cccc-2c31 (racemic) [Example 141, (rac)-11-ethyl-7,10-dimethyl-1-[3-(1-naphthyloxy)propyl]-4,5,6,7,8,10-hexahydropyrazolo[3′,4′:7,8][1,5]diazecino[9,10,1-hi]indole-2-carboxylic Acid]	> 20 µM	1.39e-06 M	1e-05 M			7.87e-06 M	
Cc1c2c(nn1CCN1CCOCC1)CN(C)CCCn1c(C(=O)O)c(CCCOc3cccc4ccccc34)c3cccc-2c31 (single isomer, unassigned; enantiomer 1) [Example 060, 7,11-dimethyl-10-[2-(morpholin-4-yl)ethyl]-1-[3-(naphthalen-1-yloxy)propyl]-4,5,6,7,8,10-hexahydropyrazolo[3′,4′:7,8][1,5]diazecino[9,10,1-hi]indole-2-carboxylic Acid (Enantiomer 1)]	> 20 µM		1.16e-05 M	1.79e-06 M			7.87e-06 M
Cc1nn(C)c2c1-c1cccc3c(CCCOc4cccc5cc(F)ccc45)c(C(=O)O)n(c13)CCCOC2 (single isomer, unassigned; enantiomer 1) [Example 047, 1-{3-[(6-fluoronaphthalen-1-yl)oxy]propyl}-9,11-dimethyl-5,6,8,9-tetrahydro-4H-pyrazolo[4′,3′:8,9][1,5]oxazecino[7,6,5-hi]indole-2-carboxylic acid-N-ethylethanamine Salt (Enantiomer 1)]	> 20 µM			4.41e-06 M	3.61e-06 M		6.49e-06 M
Cc1ccc2c(CCCOc3cccc4ccccc34)c(C(=O)O)n3c2c1-c1c(nn(C)c1C)CN(C)CCC3 (single isomer, unassigned; enantiomer 2) [Example 074, 7,10,11,12-tetramethyl-1-[3-(naphthalen-1-yloxy)propyl]-4,5,6,7,8,10-hexahydropyrazolo[3′,4′:7,8][1,5]diazecino[9,10,1-hi]indole-2-carboxylic Acid (Enantiomer 2)]	> 20 µM			1.14e-05 M	1.26e-05 M		1.17e-05 M

Continued, in another order:

IC50 (BCL-XL)	IC50 (SUDHL5; Homo sapiens, SU-DHL-5, 72 h)	IC50 (SUDHL10 [1]; Homo sapiens, SU-DHL10, 72 h)	IC50 (SUDHL5)	IC50 (SUDHL10 [1])	SMILES	IC50 (SUDHL10 [2]; [3])	IC50 (SUDHL10 [2]; [4])
> 20 µM	2.63e-06 M	6.09e-06 M			Cc1c2c(nn1C)COCCCCn1c(C(=O)O)c(CCCOc3cccc4ccccc34)c3cccc-2c31 (racemic) [Example 1-36, (rac)-2,3-dimethyl-7-[3-(naphthalen-1-yloxy)propyl]-2,10,11,12,13,15-hexahydropyrazolo[4′,3′:9,10][1,6]oxazacycloundecino[8,7,6-hi]indole-8-carboxylic Acid]	1.4e-05 M	
> 20 µM			1.36e-06 M	1.56e-06 M	CN1CCCn2c(C(=O)O)c(CCCOc3cccc4ccccc34)c3cccc(c32)-c2c(COc3ccc(N4CCN(S(=O)(=O)N(C)C)CC4)cc3)nn(C)c2C1 (single isomer, unassigned; enantiomer 1) [Example 1-15, (+)-11-({4-[4-(dimethylsulfamoyl)piperazin-1-yl]phenoxy}methyl)-7,9-dimethyl-1-[3-(naphthalen-1-yloxy)propyl]-4,5,6,7,8,9-hexahydropyrazolo[3′,4′:7,8][1,5]diazecino[9,10,1-hi]indole-2-carboxylic Acid (Enantiomer 1)]		1.94e-06 M
> 20 µM			7.58e-07 M	1.38e-06 M	Cn1nc(COc2ccc(N3CCN(S(=O)(=O)C4CC4)CC3)cc2)c2c1COCCCCn1c(C(=O)O)c(CCCOc3cccc4ccccc34)c3cccc-2c31 (single isomer, unassigned; enantiomer 2) [Example 1-13, 3-({4-[4-(cyclopropylsulfonyl)piperazin-1-yl]phenoxy}methyl)-1-methyl-7-[3-(naphthalen-1-yloxy)propyl]-1,10,11,12,13,15-hexahydropyrazolo[4′,3′:9,10][1,6]oxazacycloundecino[8,7,6-hi]indole-8-carboxylic Acid (Enantiomer 2)]		4.36e-07 M
